From patent US6558900B2, “Regulation of apoptosis and in vitro model for studies thereof” (Emory University, priority 1996, dated 2003)

System: hamster liver nuclei
Assay: Reconstitution of DNA fragmentation and nuclear morphological change in HeLa S-100 immunodepleted of cytochrome c
Type: biochemical
Protocol: Cytochrome c present in the HeLa cell S-100 was immunodepleted as described in the Example 10. In FIG. 7A, 10 μl aliquots of HeLa S-100 (50 μg) (lanes 1 and 2), or 10 μl aliquots of HeLa S-100 immunodepleted of cytochrome c (lanes 3 and 4), or 10 μl of HeLa S-100 immunodepleted of cytochrome c supplemented with 0.2 μg Apaf-2 purified through the Mono S column (H) (lanes 5 and 6), bovine heart cytochrome c (B) (lanes 7 and 8), or rat liver cytochrome c (R) (lanes 9 and 10), were incubated with aliquots of 3 μl in vitro translated, ^35S-labeled CPP32 in the absence (lanes 1, 3, 5, 7, 9) or presence (lanes 2, 4, 6, 8, 10) of 1 mM dATP at 30° C. for 1 hr in a final reaction volume of 20 μl of buffer A. Samples were subjected to SDS-PAGE and transferred to a nitrocellulose filter which were then exposed to film for 16 hr at room temperature. In FIG. 7B, HeLa S-100 (50 μg) immunodepleted of cytochrome c were reconstituted with the indicated amount of Apaf-2 (purified through Mono S column step) in a CPP32 cleavage reaction as described in FIG. 7A. The cleaved products (p20) were quantified in a Fuji-1000 phosphorimager machine and plotted in comparison with that generated by HeLa S-100. In FIG. 7C, aliquots of 50 μl of HeLa S-100 (250 μg) (lanes 1 and 2), or 50 μl of HeLa S-100 immunodepleted of cytochrome c (lanes 3 and 4), or 50 μl of HeLa S-100 immunodepleted of cytochrome c supplemented with 1 μg apaf-2 purified through the Mono S column (H) (lanes 5 and 6), bovine heart cytochrome c (B) (lanes 7 and 8), or rat liver cytochrome c (R) (lanes 9 and 10), were incubated with aliquots of 6 μl hamster liver nuclei in the absence (lanes 1, 3, 5, 7, 9) or presence (lanes 2, 4, 6, 8, 10) of 1 mM dATP at 37° C. for 2 hr in a final reaction volume of 60 μl. The DNA were isolated as described in the Examples, analyzed on 2% agarose gel electrophoresis, and the DNA was visualized by ethidium bromide staining. In FIG. 7D, DNA fragmentation assays were carried out as in FIG. 7C using HeLa S-100 immunodepleted of cytochrome c alone (a,b) or supplemented with Apaf-2 purified through Mono S column step (c,d) in the absence (a,c) or presence of 1 mM dATP (b,d). After 2 hr incubation at 37° C., an aliquot of each reaction (30 μl) was stained with 4′,6′-diamidino-2-phenylindole (DAPI), and observed under a fluorescence microscope with a UV-2A combination filter.
To rule out the possibility that the Apaf-2 activity is due to a minor contaminating protein that co-purified with cytochrome c, an immunodepletion experiment was carried out using a monoclonal antibody against rat cytochrome c. This monoclonal antibody cross-reacts with purified Apaf-2. […]

**Q.** How did the “restoration of DNA fragmentation” value (1 μg added to immunodepleted HeLa S-100, 1 mM dATP) turn out when “Apaf-2: 15 kDa factor bound to phosphocellulose column, purified from HeLa S-100, identified as human cytochrome c” was run?
**A.** Its value is “restored”.

**Q.** What about the “nuclear morphological change (DAPI)” value (immunodepleted S-100 supplemented with Apaf-2, 1 mM dATP) of the same substance?
**A.** Its value is “accompanied by the morphological change in the co-incubated nuclei that is characteristic of apoptosis”.
